Test results taken from publication PMC6836125, “Antiamoebic Activities of Indolocarbazole Metabolites Isolated from Streptomyces sanyensis Cultures” (Marine Drugs, 2019).
Read-outs that look alike come from different tables or passages of the source.

Legend:
A. griffini = assay: Anti-Acanthamoeba activity on trophozoites, alamarBlue colorimetric assay; assay type: cell-based; conditions: 96 h, read-out: IC50 A. griffini
Protocol: (§1) The amoeba strain used in this study was the type strain: Acanthamoeba castellanii Neff (ATCC 30010) which was axenically grown in PYG medium (0.75% (w/v) proteose peptone, 0.75% (w/v) yeast extract and 1.5% (w/v) glucose) containing 40 µg/mL of gentamicin (Biochrom AG, Cultek, Granollers, Barcelona, Spain). The murine macrophages J774A.1 (ATCC TIB-67) cell line was cultured in RPMI 1640 medium supplemented with 10% fetal bovine serum at 37 °C and 5% CO2 atmosphere, was used for the cytotoxicity assays. Successively, the evaluated molecules were also tested against two clinical isolates, Acanthamoeba griffini, genotype T3 obtained in a previous study, and Acanthamoeba polyphaga genotype T4 ATCC 30461, both axenically grown in the same medium as A. castellanii Neff.
(§2) To evaluate the biological activity of the fractions and molecules, the anti-Acanthamoeba experiments were carried out using the alamarBlue® colorimetric assay, as it was previously described. Briefly, Acanthamoeba strain was seeded in triplicate on 96-well microtiter plates (ThermoFisher™, Waltham, MA, USA) with 50 µL from a stock solution of 5 × 10^4 cells/mL and 50 µL of serial dilutions of the evaluated molecules in each well (1% DMSO was used to dissolve the highest dose of the compounds with no effects on the parasites). Two reference treatments such as chlorhexidine (chlorhexidine digluconate; Alfa Aesar) and voriconazole (Sigma), were used as positive controls. Finally, the alamarBlue® Reagent (Life Technologies, Madrid, Spain) was placed into each well at an amount equal to 10% of the final volume. Plates were incubated for 96 h at 26 °C with a slight agitation until their measurement in the EnSpire® Multimode Plate Reader (Perkin Elmer, Madrid, Spain) using fluorescence, at 570/585 nm.
(§3) The percentage of the growth inhibition, 50% inhibitory concentration (IC50 or CC50), was calculated by nonlinear regression analysis with 95% confidence limits using Sigma Plot 12.0 statistical analysis software (Systat Software). All experiments were performed three times, and the mean values were also calculated. A paired two-tailed t-test was used for analysis of the data. Values of p < 0.05 were considered significant.

A. polyphaga = assay: as above; assay type: cell-based; conditions: 96 h, read-out: IC50 A. polyphaga
Protocol: as §1, §2, §3

[1] = Cytotoxicity test, alamarBlue assay; assay type: cell-based, murine; conditions: mouse, 37 °C, mean ± SD
Protocol: as §1
The cytotoxicity effect of active molecules was evaluated in murine macrophage J774A.1 cell line (ATCC # TIB-67) following the same protocol described above for Acanthamoeba trophozoites. Then, plates containing alamarBlue® were incubated for 24 h at 37 °C in presence of CO2 at 5%.
as §3

A. castellanii Neff [2] = assay: Anti-Acanthamoeba activity on trophozoites, alamarBlue colorimetric assay; assay type: cell-based, Acanthamoeba castellanii Neff; conditions: for IC50: 96 h, read-out: IC50 A. castellanii Neff
Protocol: as §1, §2, §3

A. castellanii Neff [3] = assay: Plasma membrane permeability (SYTOX Green); assay type: cell-based, Acanthamoeba castellanii Neff; conditions: IC90, 24 h
Protocol: In order to detect alterations of the membrane permeability in treated cells, the SYTOX Green (ThermoFischer^TM) assay was performed. Briefly, 10^5 trophozoite were washed and incubated in saline solution with SYTOX Green at a final concentration of 1 μM for 15 min in darkness. After that, IC90 of 7OSTS (2) was added to the cells and incubated for 24 h. Cells were observed and pictures were taken on the EVOS FL inverted microscope.

A. castellanii Neff [4] = assay: Double-stain assay (Hoechst 33342/PI) for programmed cell death determination; assay type: cell-based, Acanthamoeba castellanii Neff; conditions: IC90 concentration, 24 h
Protocol: 10^5 amoebas/well were incubated in a 24-well plate with the previously calculated IC90 of 7OSTS for 24 h. A double-stain apoptosis detection kit (Hoechst 33342/PI) (ThermoFisher™, Waltham, MA, USA) was used to carry out the experiment following the manufacturer’s recommendations. The images were obtained using the EVOS FL Cell Imaging System AMF4300, Life Technologies, USA. The double-staining pattern allows the identification of live cells with low level of fluorescence, cells undergoing PCD with a higher level of blue fluorescence (as chromatin condenses), and dead cells which will show low-blue and high-red fluorescence (as the propidium iodide stain enters the nucleus of dead cells).

[5] = test system: A. castellanii Neff cysts; assay: In vitro activity against cysts (cysticidal assay, alamarBlue); assay type: cell-based, Acanthamoeba castellanii Neff; conditions: mature cysts
Protocol: On the other side, cysticidal activity of 7OSTS (2) was determined also using the alamarBlue™ reagent and confirmed visually by inverted microscopy. Cysts of A. castellaniii Neff were prepared as previously described. First of all, trophozoites were transferred from PYG medium based cultures (trophozoite medium) to Neff’s encystment medium (NEM; 0.1 M KCl, 8 mM MgSO4·7H2O, 0.4 mM CaCl2·2H2O, 1 mM NaHCO3, 20 mM ammediol [2-amino-2-methyl-1,3-propanediol; Sigma Aldrich Chemistry Ltd., Madrid, Spain], pH 8.8, at 25 °C) and were cultured in this medium with gently shaking for a week in order to obtain mature cysts. In order to carry out the cysticidal assay, mature cysts were harvested and washed twice with PYG medium. Serial dilutions of 7OSTS (2) were made in PYG and place onto sterile 96-well microtiter plates. 5·10^4 mature cysts of Acanthamoeba/mL were added to the wells with 50 µL of 7OSTS (2) dilutions. After 7 days of incubation, the plate was centrifuged at 3000 rpm for 10 min. The supernatant was removed and replaced with 100 µL of fresh PYG medium in each well. Finally, 10 μL of the alamarBlue® Reagent was placed into each well. The plates were then incubated for 144 h at 28 °C and the emitted fluorescence was measured with the EnSpire® Multimode Plate Reader (Perkin Elmer, Madrid, Spain) using fluorescence, at 570/585 nm. […]

A. castellanii Neff [6] = assay: Measurement of ATP levels (CellTiter-Glo); assay type: cell-based, Acanthamoeba castellanii Neff; conditions: IC90, 24 h
Protocol: An appropriate level of ATP is necessary to maintain the cell metabolism. The effect of the drug on the ATP production was evaluated by incubating (10^5) of cells/mL with the previously calculated IC90 of 7OSTS (2) using the CellTiter-Glo Luminescent Cell Viability Assay. The luminescence of each assay was measured on the EnSpire®.

A. castellanii Neff [7] = assay: Analysis of mitochondrial membrane potential (JC-1); assay type: cell-based, Acanthamoeba castellanii Neff; conditions: IC90, 24 h
Protocol: The use of JC-1 mitochondrial membrane potential detection kit (Cayman Chemical) it is possible to detect the collapse of an electrochemical gradient across the mitochondrial membrane during apoptosis process. 10^5 amoebas/mL were treated with IC90 of 7OSTS (2) for 24 h, the cells were centrifuged (1000 rpm × 10 min) and suspended in JC-1 buffer. Images were taken on the EVOS FL inverted microscope. The staining pattern allows the identification of two groups in a cellular population: live cells will show only red fluorescence, but cells with low mitochondrial potential (undergoing PCD) will show a higher level of green fluorescence.

protein kinase A (PKA) = conditions: cited from earlier work
[8] = target: cyclin-dependent kinase 4 (CDK4); design: method as in PMID 19132059, PMID 14552791; conditions: cited from earlier work
[9] = target: calcium/calmodulin-dependent protein kinase II (CaMKII); design: method as in PMID 19132059, PMID 14552791; conditions: cited from earlier work
protein kinase C (PKC) = conditions: cited from earlier work
[10] = test system: human lung, colon, and nasopharyngeal carcinoma cell lines; design: method as in PMID 3112080; conditions: read-out: IC50 cytotoxic activity; cited from earlier work
[11] = read-out: Macrophage J774A.1 CC50

Question: Which IC50 (A. griffini; trophozoites, 26 °C, mean ± SD) does the source give for `COC1C(=O)CC2OC1(C)n1c3ccccc3c3c4c(c5c6ccccc6n2c5c31)C(=O)NC4` (centres unmarked) [4’D4’OSTS (3), 4′-demethylamino-4′-oxostaurosporine] here?
Answer: The IC50 was 23.9 ± 0.55 µM.

Question: What about the IC50 (A. polyphaga; trophozoites, 26 °C, mean ± SD) of the same molecule?
Answer: The IC50 was > 40 µM.

Question: And the CC50 at 24 h ([1]; J774A.1 macrophage cells)?
Answer: The CC50 at 24 h was > 40 µM.

Question: And the IC50 (A. castellanii Neff [2]; trophozoites, 26 °C, mean ± SD)?
Answer: The IC50 was 7.53 ± 0.73 µM.

Question: For `CNC1CC2OC(C)(C1OC)n1c3ccccc3c3c4c(c5c6ccccc6n2c5c31)C(=O)NC4=O` (centres unmarked) [7OSTS (2), 7-oxostaurosporine], which Plasma membrane permeability (A. castellanii Neff [3]) is on record?
Answer: The Plasma membrane permeability was “plasmatic membrane damage”.

Question: And the IC50 (A. griffini)?
Answer: The IC50 was 0.96 ± 0.19 µM.

Question: What about the IC50 (A. polyphaga) of the same molecule?
Answer: The IC50 was 5.51 ± 0.09 µM.

Question: And the CC50 at 24 h [1, 11]?
Answer: Its CC50 at 24 h is 5.2 ± 1.75 µM.

Question: And the Chromatin condensation (A. castellanii Neff [4])?
Answer: Its Chromatin condensation is “induces chromatin condensation”.

Question: What about the IC50 ([5]; Acanthamoeba castellanii) of the same molecule?
Answer: Its IC50 is 0.92 ± 0.33 µM.

Question: What about the Cyst viability ([5]; incubation up to 144 h) of the same molecule?
Answer: The Cyst viability was “non-viable cysts were observed”.

Question: And the “ATP level compared to the negative control” value (A. castellanii Neff [6])?
Answer: Its value is 45%.

Question: And the IC50 (A. castellanii Neff [2])?
Answer: The IC50 was 0.83 ± 0.09 µM.

Question: And the IC90 (A. castellanii Neff [2]; read-out: IC90 concentration)?
Answer: The IC90 was 2.91 ± 0.67 µM.

Question: What about the Mitochondrial membrane potential (A. castellanii Neff [7]) of the same molecule?
Answer: Its Mitochondrial membrane potential is “decrease of the mitochondrial membrane potential”.

Question: For `O=C1NC(=O)c2c1c1c3ccccc3[nH]c1c1[nH]c3ccccc3c21` [Arcyriaflavin A (7), arcyriaflavin A], which IC50 (protein kinase A (PKA)) is on record?
Answer: The IC50 was > 2 µM.

Question: What about the IC50 (A. griffini; trophozoites, 26 °C, mean ± SD) of the same molecule?
Answer: Its IC50 is 7.53 ± 1.11 µM.

Question: And the IC50 (A. polyphaga; trophozoites, 26 °C, mean ± SD)?
Answer: The IC50 was 7.59 ± 0.73 µM.

Question: And the IC50 [8]?
Answer: The IC50 was 0.14 µM.

Question: And the IC50 [9]?
Answer: The IC50 was 0.025 µM.

Question: What about the IC50 (A. castellanii Neff [2]; trophozoites, 26 °C, mean ± SD) of the same molecule?
Answer: Its IC50 is 7.32 ± 0.45 µM.

Question: What about the IC50 (protein kinase C (PKC)) of the same molecule?
Answer: Its IC50 is > 100 µM.

Question: With `[H]/N=C(\N/C(=N/[H])NCCCCCCNC(=N)NC(=N)Nc1ccc(Cl)cc1)Nc1ccc(Cl)cc1` [Chlorhexidine, chlorhexidine] as the molecule, how does the IC50 (A. polyphaga; trophozoites, 26 °C, mean ± SD) read?
Answer: The IC50 was 4.76 ± 0.08 µM.

Question: And the CC50 at 24 h ([1]; J774A.1 macrophage cells)?
Answer: The CC50 at 24 h was 7.4 ± 0.39 µM.

Question: Which results are given for `COC1=C(C)O[C@@H]2C[C@@]1(OC)n1c3ccccc3c3c4c(c5c6ccccc6n2c5c31)C(=O)NC4` [ICZ B (4), streptocarbazole B]?
Answer: IC50 (A. griffini; trophozoites, 26 °C, mean ± SD): 14.5 ± 0.38 µM; IC50 (A. polyphaga; trophozoites, 26 °C, mean ± SD): > 40 µM; CC50 at 24 h ([1]; J774A.1 macrophage cells): > 40 µM; IC50 (A. castellanii Neff [2]; trophozoites, 26 °C, mean ± SD): 6.83 ± 2.6 µM

Question: Which results are given for `O=C1NCc2c1c1c3ccccc3[nH]c1c1[nH]c3ccccc3c21` [K252c (6), K252c]?
Answer: IC50 (protein kinase A (PKA)): 25.7 µM; IC50 (A. griffini; trophozoites, 26 °C, mean ± SD): 2.25 ± 0.32 µM; IC50 (A. polyphaga; trophozoites, 26 °C, mean ± SD): 5.59 ± 0.34 µM; IC50 (A. castellanii Neff [2]; trophozoites, 26 °C, mean ± SD): 6.17 ± 0.73 µM

Question: With `CO[C@H]1[C@H](O)[C@@H](O)[C@H](n2c3c(Cl)cccc3c3c4c(c5c6cccc(Cl)c6[nH]c5c32)C(=O)NC4=O)O[C@@H]1CO` [Rebeccamycin (5), rebeccamycin] as the molecule, how does the IC50 (A. griffini; trophozoites, 26 °C, mean ± SD) read?
Answer: The IC50 was 5.02 ± 0.18 µM.

Question: And the IC50 (A. polyphaga; trophozoites, 26 °C, mean ± SD)?
Answer: Its IC50 is 7.47 ± 0.61 µM.

Question: And the IC50 (A. castellanii Neff [2]; trophozoites, 26 °C, mean ± SD)?
Answer: The IC50 was 5.37 ± 0.23 µM.

Question: What about the IC50 [10] of the same molecule?
Answer: The IC50 was 0.4 to 98 µM.

Question: For `CN[C@@H]1C[C@H]2O[C@@](C)([C@@H]1OC)n1c3ccccc3c3c4c(c5c6ccccc6n2c5c31)C(=O)NC4` [STS (1), staurosporine], which CC50 at 24 h [1, 11] is on record?
Answer: Its CC50 at 24 h is 8.74 ± 0.72 µM.

Question: With `C[C@@H](c1ncncc1F)[C@](O)(Cn1cncn1)c1ccc(F)cc1F` [Voriconazole, voriconazole] as the molecule, how does the IC50 (A. griffini; trophozoites, 26 °C, mean ± SD) read?
Answer: Its IC50 is 0.1 ± 0.02 µM.

Question: And the IC50 (A. polyphaga; trophozoites, 26 °C, mean ± SD)?
Answer: Its IC50 is 10.1 ± 2.21 µM.

Question: And the CC50 at 24 h ([1]; J774A.1 macrophage cells)?
Answer: The CC50 at 24 h was 7.56 ± 0.77 µM.

Question: What about the IC50 (A. castellanii Neff [2]; trophozoites, 26 °C, mean ± SD) of the same molecule?
Answer: The IC50 was 0.94 ± 0.29 µM.
